# Assay results published in patent US9314439B2, “Composition and method for muscle repair and regeneration” (Thomas Jefferson University, priority 2010, dated 2016).
# “Also recorded” adds a separate entry of the source.
# How the values were obtained:
# [1] = test system: mouse bone marrow-derived mesenchymal stem cell (BMSC) cultures; assay: myogenic differentiation in mouse BMSC cultures; format: cell-based; details: 7 days, 5% FBS DMEM
# Method: MSCs were isolated as described previously (ref) with minor modification. Briefly, mouse bone marrow cells (1−2×10^7) harvested from long bones of 4-6 weeks old mice were seeded onto 100-mm culture dishes, incubated for 3 hours at 37° C. to allow attachment of adherent cells, and then rinsed twice with PBS to remove the nonadherent cells. The bone marrow-derived MSCs formed adherent colonies after 12-15 days of culture. Primary cultures were passed to disperse the colony-forming cells (passage 1). The cells were then subcultured again when they reached 70% confluent. Cells were maintained in α-MEM (Gibco BRL; Invitrogen Corp.) containing 20% fetal bovine serum (FBS; Equitech-Bio Inc.), 2 mM L-glutamine, a combination of 100 U/ml penicillin and 100 μg/ml streptomycin (Biofluids Inc.), and 55 μM 2-mercaptoethanol (Gibco BRL; Invitrogen Corp.) before the first passage. After the first passage, cells were maintained in 10% FBS, α-MEM unless indicated.
# The differential effects of retinoid agonists on myogenic differentiation in mouse bone marrow-derived mesenchymal stem cell (BMSC) cultures were investigated. BMSCs were prepared from femurs and tibias of 6 week-old mice by standard methods and maintained in 5% FBS DMEM for 7 days in presence of 0.1% DMSO (vehicle: Control), 1 μM all-trans retinoic acid (RA) (commercially available from Sigma), 1 μM RAR alpha-agonist (obtained from NuRx Pharmaceuticals) or 30 nM RAR gamma-agonist (CD1530, commercially available).
# [2] = test system: RAR subtypes; details: cited from earlier work
# [3] = test system: RXR receptors; details: cited from earlier work
# [4] = test system: muscle defect in calf or anterior tibial muscles; assay: muscle defect mouse model, systemic or local administration of RAR agonist; format: in vivo; details: for muscle repair: 100 μg/gavage/day at day 8, 10 and 12 from injury, 4 weeks after surgery
# Description: Histological Procedures. To inspect muscle tissue structure, samples were fixed in 4% PFA and embedded in paraffin. Five μm serial sections were stained by either H&E (http://www.ihcworld.com/_protocols/special_stains/HE_Mayer.htm) or Masson's trichrome staining solution (http://www.ihcworld.com/_protocols/special_stains/masson_trichrome.htm). To detect adipose tissue, 4% PFA fixed samples were equilibrated in 20% sucrose in PBS, embedded in OCT compound and then sectioned by cryostat. Ten μm cryosections were dried, rehydrated and then stained with Oil-red O (http://www.ihcworld.com/_protocols/special_stains/oil_ red o.htm).
# Immuno-Fluorescence. For the detection of various antigens in tissue sections, 5 μm paraffin sections were de-paraffinized, re-hydrated and then treated with 0.1% pepsin in 0.02 N HCl for 15 min at 37° C. Sections were washed three times in PBS-T and blocked in 10% normal goat serum with 0.3% BSA. Sections were incubated with 1st antibody, washed three times with PBS-T and then incubated with 2nd antibody. The list of antigens, antibodies and their dilutions are shown below.
# Local and Systemic Administration of RAR Agonist. Systemic administration of RAR agonist was carried out by gavage as described previously (Shimono et al. J. Orthop. Res. 28:271-277, 2010). Local delivery of RAR agonist was done by injecting RAR agonist (dissolved in DMSO) using Hamilton syringe 87943 with 26G needle.
# A muscle defect mouse model was used to investigate the muscle repair stimulation by administration of RAR gamma-agonists. A round-shaped defect was created with an electric cautery in calf or anterior tibial muscles in 8 week-old mice resulting in a 2.0 mm×2.0 mm×2.0 mm defect.
# Round-shaped defects were created in calf-muscle tissue of 8 weeks old mice as above (one muscle defect/mouse). […] Tissue was collected for histological analysis on day 14.
# […] Tissues were collected for histological analysis at 2 and 4 weeks. Macro-photos of injured muscle tissue collected from control and RAR gamma-agonist (CD1530)-treated mice were taken at 4 weeks after injury.
# Histological analysis of skeletal muscle tissue was performed 4 weeks after injury. Serial transverse sections of muscle tissue specimens collected 4 weeks after injury (same samples as discussed directly above) were stained with Masson's trichrome or processed for immuno-staining with antibodies to laminin (an extracellular protein abundant around muscle cells). […] To evaluate and quantify the changes of skeletal muscle tissue structure, images of trichrome-stained serial sections were taken and the relative amounts of muscle fiber, adipose and fibrous tissues were determined in multiple defined areas by ImagePro software. The analyzed areas were 9×9 grids each (about 3×3 mm) that included the original injured site (2×2 mm).
# The effects of various retinoid agonists on skeletal muscle repair were examined Macro photographs were taken of muscle injury sites at the 4-week time point.
# [5] = test system: mesenchymal stem cell line; assay: MyoD and Myf5 immunostaining in mesenchymal stem cell (MSC) cultures; format: cell-based; details: 100 nM, 10 days
# Method: Cells from a mesenchymal stem cell line were cultured for 10 days in the presence or absence of RAR gamma-agonist (CD1530, 100 nM). Cultures were processed for immunostaining with MyoD or Myf5 antibodies or stained with nuclear dye DAPI. […] Results indicated an increase in MyoD and Myf5 levels by the RAR gamma-agonist in mesenchymal stem cell (MSC) cultures.
# [6] = 300 μg by gavage on day 8, 10 and 12, 4 weeks after injury
# [7] = 900 μg by gavage on day 8, 10 and 12, 4 weeks after injury
# [8] = 100 ng on day 5, 7 and 9, 4 weeks after injury
# [9] = 300 μg/day by gavage on day 8, 10 and 12, 4 weeks after injury
smiles,measurement,setting,value
"CC1=C(/C=C/C(C)=C/C=C/C(C)=C/C(=O)O)C(C)(C)CCC1 [RA, all-trans retinoic acid]",formation of elongated multinucleated muscle cells,[1]; 1 μM,formed only in RAR gamma-agonist treated cultures
same,binding affinity to the three RAR subtypes,[2],approximately equal affinity
same,binding to the RXR receptors,[3],does not bind
same,fibrous tissue area,"[4]; 300 μg by gavage on day 8, 10 and 12, 4 weeks",significant increase of fibrous tissue area
same,macroscopic appearance of injury site,[4]; [6],still clearly visible as large whitish spots
same,muscle fiber area,"[4]; 300 μg by gavage on day 8, 10 and 12, 4 weeks, control 33%, normal 90%",54%
CC1(C)CCC(C)(C)c2c1cc(C(=O)Nc1cc(F)c(C(=O)O)c(F)c1)c(O)c2Cl [NRX195183],formation of elongated multinucleated muscle cells,[1]; 1 μM,formed only in RAR gamma-agonist treated cultures
same,macroscopic appearance of injury site,[4]; [7],still clearly visible as large whitish spots
same,tissue composition (histomorphometric quantification),[4]; [7],did not improve tissue composition
"CC1(C)CCC(C)(C)c2cc(Cn3cccn3)c(/C=C/c3ccc(C(=O)O)cc3)cc21 [Palovarotene, 4-[(E)-2-[5,6,7,8-Tetrahydro-5,5,8,8-tetramethyl-3-(1H-pyrazol-1-ylmethyl)-2-naphthalenyl]-ethenyl]-benzoic acid]",muscle repair,[4],induced effective muscle repair
CC1=C(/C=C/C(C)=C\C=C\C(C)=C\C(=O)O)C(C)(C)CCC1 [9-cis retinoic acid],binding to the RXR receptors,[3],natural ligand
"O=C(O)c1ccc2cc(-c3ccc(O)c(C45CC6CC(CC(C6)C4)C5)c3)ccc2c1 [CD437, 6-(4-Hydroxy-3-tricyclo[3.3.1.13,7]dec-1-ylphenyl)-2-naphthalenecarboxylic acid]",muscle repair,[4],induced effective muscle repair
"O=C(O)c1ccc(-c2ccc3cc(O)c(C45CC6CC(CC(C6)C4)C5)cc3c2)cc1 [CD1530, 4-(6-Hydroxy-7-tricyclo[3.3.1.13,7]dec-1-yl-2-naphthalenyl)benzoic acid]",formation of elongated multinucleated muscle cells,[1]; 30 nM,Many elongated multinucleated muscle cells formed
same,Myf5 immunostaining,[5],clearly present
same,MyoD immunostaining,[5],clearly present
same,HE histology of muscle defect,"[4]; 100 ng on day 1, 3, 5, 7 and 9, 4 weeks after injury",decreased adipose and fibrous scar tissue formation but left a large indentation
same,HE histology of muscle defect,"[4]; 100 ng on day 1, 3 and 5, 4 weeks after injury",decreased adipose and fibrous scar tissue formation but left a large indentation
same,indentation at muscle defect,[4]; [8],much reduced indentation
same,quality and amount of newly formed muscle tissue,[4]; [8],best
same,repair of muscle defects after local administration,"[4]; 3 μg injected subcutaneously around the injury site on day 8 and 10, 4 weeks",almost completely repaired
same,macroscopic appearance of injury site,[4]; [6],almost no visible sign of the original defect; also recorded: essentially invisible
same,"tissue composition (relative amounts of muscle fiber, adipose and fibrous tissues, ImagePro)",[4]; [6],largely restored the tissue composition; also recorded: almost normal
same,anti-laminin staining of repair tissue,[4]; [9],stained strongly with anti-laminin antibodies
same,repair of muscle injury (Masson's trichrome sections),[4]; [9],almost completely repaired
same,"amount of adipose and fibrous tissue (histo-morphometric analysis, ImagePro)","[4]; Day 5-9 treated group, Masson's trichrome, FIG. 6",least amount of adipose and fibrous tissue among all injured groups
same,histological analysis of muscle defect,"[4]; anterior tibial muscle, 300 μg/day by gavage on day 8, 10 and 12, 2 and 4 weeks",filled with muscle fibers aligned along the major longitudinal axis of the anterior tibial muscle
same,myosin heavy chain (MHC) immunostaining of defect site,"[4]; calf muscle, 300 μg/day by gavage on day 8, 10 and 12, day 14",many of these cells were MHC positive
same,histology of muscle defect site,"[4]; calf muscle, 300 μg/day by gavage on day 8, 10 and 12 after injury, day 14",filled with many elongated muscle-like cells
same,HE histology of muscle defect,"[4]; treated at days 1-3, 4 weeks after injury",decreased adipose and fibrous scar tissue formation but left a partial defect
same,HE histology of muscle defect,"[4]; treated at days 5-7, 4 weeks after injury",completely filled with newly generated muscle fibers
